Data reported in ChEMBL document CHEMBL3739265, “Synthesis and biological evaluation of negative allosteric modulators of the Kv11.1(hERG) channel” (Eur J Med Chem, 2015).

What was measured:
[1] = molecular target: T1, Voltage-gated inwardly rectifying potassium channel KCNH2 (Homo sapiens, UniProt Q12809); test: Binding affinity to Kv11.1 channel (unknown origin)
[2] = molecular target: Kv11.1 (KCNH2, hERG) potassium channel (Homo sapiens, UniProt Q12809); test: Allosteric modulation of [3H]-dofetilide binding at Kv11.1 channel (unknown origin) expressed in HEK293 cells at 10 uM after 6 mins by scintillation spectrometer analysis relative to control; type: cell-based; conditions: HEK293 cells expressing Kv11.1 channel, probe [3H]-dofetilide, read-out: Activity
Chain of Kv11.1 (KCNH2, hERG) potassium channel (Q12809 whole entry): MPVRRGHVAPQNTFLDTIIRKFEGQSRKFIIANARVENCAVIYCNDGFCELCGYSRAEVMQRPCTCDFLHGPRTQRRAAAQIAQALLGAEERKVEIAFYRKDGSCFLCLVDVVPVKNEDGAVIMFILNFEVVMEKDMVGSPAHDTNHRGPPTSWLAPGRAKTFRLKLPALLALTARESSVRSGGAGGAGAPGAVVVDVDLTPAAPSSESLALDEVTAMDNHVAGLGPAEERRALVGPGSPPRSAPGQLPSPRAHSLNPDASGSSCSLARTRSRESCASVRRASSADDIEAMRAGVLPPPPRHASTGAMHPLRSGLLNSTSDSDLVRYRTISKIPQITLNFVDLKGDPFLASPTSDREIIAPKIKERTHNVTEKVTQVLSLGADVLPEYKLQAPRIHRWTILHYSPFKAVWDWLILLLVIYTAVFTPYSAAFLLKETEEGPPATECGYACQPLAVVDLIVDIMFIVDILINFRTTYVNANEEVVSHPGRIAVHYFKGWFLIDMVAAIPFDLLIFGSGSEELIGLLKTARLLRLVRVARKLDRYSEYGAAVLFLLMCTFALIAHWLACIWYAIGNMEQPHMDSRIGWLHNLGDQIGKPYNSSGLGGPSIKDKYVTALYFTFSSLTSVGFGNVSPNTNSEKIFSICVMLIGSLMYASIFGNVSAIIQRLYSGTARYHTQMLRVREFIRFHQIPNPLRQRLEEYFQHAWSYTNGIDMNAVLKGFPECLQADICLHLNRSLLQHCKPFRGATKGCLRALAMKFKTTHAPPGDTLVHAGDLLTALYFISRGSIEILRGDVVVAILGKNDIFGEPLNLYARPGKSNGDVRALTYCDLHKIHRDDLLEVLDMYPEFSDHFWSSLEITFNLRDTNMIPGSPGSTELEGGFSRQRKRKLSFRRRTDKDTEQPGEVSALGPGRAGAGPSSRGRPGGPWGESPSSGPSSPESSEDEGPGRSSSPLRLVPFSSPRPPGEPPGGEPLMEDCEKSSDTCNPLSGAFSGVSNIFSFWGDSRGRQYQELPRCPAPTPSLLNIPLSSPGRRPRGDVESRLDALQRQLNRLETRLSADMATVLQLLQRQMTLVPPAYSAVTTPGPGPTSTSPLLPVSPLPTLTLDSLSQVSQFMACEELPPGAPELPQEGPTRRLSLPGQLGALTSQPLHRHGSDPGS

[3] = molecular target: T1, Voltage-gated inwardly rectifying potassium channel KCNH2; test: Induction of dissociation of [3H]-dofetilide from Kv11.1 channel (unknown origin) assessed as dissociation rate expressed in HEK293 cells at 50 uM after 1 hr relative to control; type: cell-based; conditions: hek293, 1 h
[4] = molecular target: T1, Voltage-gated inwardly rectifying potassium channel KCNH2; test: Allosteric modulation of Kv11.1 channel (unknown origin) expressed in HEK293 cells assessed as shift of inhibition constant for dofetilide-induced displacement of [3H]-dofetilide binding at 10 uM after 1 hr relative to control; type: cell-based; conditions: hek293, 1 h
[5] = molecular target: T1, Voltage-gated inwardly rectifying potassium channel KCNH2; test: Allosteric modulation of Kv11.1 channel (unknown origin) expressed in HEK293 cells assessed as shift of inhibition constant for astemizole-induced displacement of [3H]-dofetilide binding at 10 uM after 1 hr relative to control; type: cell-based; conditions: hek293, 1 h
[6] = molecular target: T1, Voltage-gated inwardly rectifying potassium channel KCNH2; test: Induction of dissociation of [3H]-dofetilide from Kv11.1 channel (unknown origin) assessed as dissociation rate expressed in HEK293 cells after 1 hr; type: cell-based

T1 sequence (Q12809 whole entry): as above

O=C(COc1ccc2ccccc2c1Br)Nc1cccnc1
Ki [1]: 0.0048 µM
activity at 0.1 h, 10 µM [2]: 66%

O=C(COc1ccc(C(=O)c2ccccc2)cc1)Nc1cccnc1
activity at 0.1 h, 10 µM [2]: 78%

O=C(COc1ccc(C(=O)c2cccc(F)c2Br)cc1)Nc1cccnc1
activity at 0.1 h, 10 µM [2]: 85%

O=C(COc1ccc(C(=O)c2ccc(Cl)cc2)cc1)Nc1cccnc1
activity at 0.1 h, 10 µM [2]: 104%

Cc1ccc(NC(=O)COc2ccc(C(=O)c3ccccc3Br)cc2)cn1
activity at 0.1 h, 10 µM [2]: 105%

COc1ccncc1NC(=O)COc1ccc(C(=O)c2ccccc2Br)cc1
activity at 0.1 h, 10 µM [2]: 105%

O=C(COc1ccc(C(=O)c2ccccc2Br)cc1)Nc1cncnc1
activity at 0.1 h, 10 µM [2]: 87%

Cc1ccc(C(=O)c2ccc(OCC(=O)Nc3cccnc3)cc2)cc1
activity at 0.1 h, 10 µM [2]: 97%

O=C(COc1ccc(C(=O)c2cccc(Br)c2)cc1)Nc1cccnc1
fold change (FC) [3]: 1.4
fold change (FC) [4]: 1.4
fold change (FC) [5]: 1.4
activity at 0.1 h, 10 µM [2]: 57%

O=C(COc1ccc(C(=O)c2ccccc2)c(Br)c1)Nc1cccnc1
activity at 0.1 h, 10 µM [2]: 96%

O=C(COc1ccc(C(=O)c2cccc(Cl)c2)cc1)Nc1cccnc1
fold change (FC) [3]: 1.7
fold change (FC) [4]: 3.3
fold change (FC) [5]: 2.8
activity at 0.1 h, 10 µM [2]: 43%

O=C(COc1ccc(C(=O)c2ccccc2Br)cc1)Nc1ccc(Cl)nn1
activity at 0.1 h, 10 µM [2]: 92%

Cc1ccncc1NC(=O)COc1ccc(C(=O)c2ccccc2Br)cc1
activity at 0.1 h, 10 µM [2]: 108%

O=C(COc1ccc(C(=O)c2cccc(F)c2)cc1)Nc1cccnc1
fold change (FC) [3]: 1.6
fold change (FC) [4]: 1.9
fold change (FC) [5]: 1.9
activity at 0.1 h, 10 µM [2]: 47%

O=C(COc1ccc(C(=O)c2cccc(I)c2)cc1)Nc1cccnc1
activity at 0.1 h, 10 µM [2]: 62%

O=C(COc1ccc(C(=O)c2ccccc2F)cc1)Nc1cccnc1
activity at 0.1 h, 10 µM [2]: 85%

O=C(COc1ccc(C(=O)c2ccccc2Br)cc1)Nc1cccnc1
fold change (FC) [3]: 3
EC50 [6]: 12 µM
fold change (FC) [4]: 2.5
fold change (FC) [5]: 4.1
activity at 0.1 h, 10 µM [2]: 44%

COc1ccc(NC(=O)COc2ccc(C(=O)c3ccccc3Br)cc2)cn1
activity at 0.1 h, 10 µM [2]: 124%

O=C(COc1ccc(C(=O)c2ccc(F)cc2)cc1)Nc1cccnc1
activity at 0.1 h, 10 µM [2]: 65%

COc1cncc(NC(=O)COc2ccc(C(=O)c3ccccc3Br)cc2)c1
activity at 0.1 h, 10 µM [2]: 107%

O=C(COc1ccc(C(=O)c2ccccc2Br)cc1)Nc1ccc(Cl)nc1
activity at 0.1 h, 10 µM [2]: 95%

O=C(COc1ccc(C(=O)c2ccccc2Cl)cc1)Nc1cccnc1
activity at 0.1 h, 10 µM [2]: 71%

Cc1cncc(NC(=O)COc2ccc(C(=O)c3ccccc3Br)cc2)c1
activity at 0.1 h, 10 µM [2]: 121%

O=C(COc1ccc2c(c1)-c1ccccc1C2=O)Nc1cccnc1
activity at 0.1 h, 10 µM [2]: 79%

O=C(COc1ccc(C(=O)c2ccccc2Br)cc1)Nc1cnc2ccccc2c1
activity at 0.1 h, 10 µM [2]: 87%

O=C(COc1ccc(C(=O)c2cc(F)ccc2Br)cc1)Nc1cccnc1
fold change (FC) [3]: 4.1
EC50 [6]: 4.6 µM
fold change (FC) [4]: 4.6
fold change (FC) [5]: 6.3
activity at 0.1 h, 10 µM [2]: 38%

O=C(COc1ccc(C(=O)c2ccccc2I)cc1)Nc1cccnc1
activity at 0.1 h, 10 µM [2]: 72%

O=C(COc1ccc(C(=O)c2ccccc2Br)cc1)Nc1cnccn1
activity at 0.1 h, 10 µM [2]: 92%

O=C(COc1ccc(C(=O)c2ccccc2)cc1Br)Nc1cccnc1
activity at 0.1 h, 10 µM [2]: 96%
